Assay results: patent US7285569B2, “Tricycles, their manufacture and use as pharmaceutical agents” (Hoff Hoffmann-La Roche Inc., priority 2004, dated 2007)

Tests used:
HCT 116 cells = experiment: CellTiter-Glo assay in HCT 116 cells (antiproliferative activity); type: cell-based; details: HCT 116 human colon carcinoma cells, 5 days (120 h) incubation, CellTiter-Glo luminescence
Source text: Antiproliferative Activity
CellTiter-Glo™ Assay in HCT 116 Cells
The CellTiter-Glo™ Luminescent Cell Viability Assay (Promega) is a homogeneous method of determining the number of viable cells in culture based on quantitation of the ATP present, which signals the presence of metabolically active cells.
HCT 116 cells (human colon carcinoma, ATCC-No. CCI-247) were cultivated in RPMI 1640 medium with GlutaMAX™ I (Invitrogen, Cat-No. 61870-010), 2.5% Fetal Calf Serum (FCS, Sigma Cat-No. F4135 (FBS)); 100 Units/ml penicillin/100 μg/ml streptomycin (=Pen/Strep from Invitrogen Cat. No. 15140). For the assay the cells were seeded in 384 well plates, 1000 cells per well, in the same medium. The next day the test compounds were added in various concentrations ranging from 30 μM to 0.0015 μM (10 concentrations, 1:3 diluted). After 5 days the CellTiter-Glo™ assay was done according to the instructions of the manufacturer (CellTiter-Glo™ Luminescent Cell Viability Assay, from Promega). In brief: the cell-plate was equilibrated to room temperature for approximately 30 minutes and than the CellTiter-Glo™ reagent was added. The contents were carefully mixed for 15 minutes to induce cell lysis. After 45 minutes the luminescent signal was measured in Victor 2, (scanning multiwell spectrophotometer, Wallac).
Medium: RPMI 1640 with GlutaMAX™ I (Invitrogen, Cat-Nr. 61870), 5% FCS (Sigma Cat.-No. F4135), Pen/Strep (Invitrogen, Cat No. 15140).
HCT116 (ATCC-No. CCI-247): 1000 cells in 60 μl per well of 384 well plate (Greiner 781098, μClear-plate white)
After seeding incubate plates 24 h at 37° C., 5% CO2
2nd. Day: Induction (Treatment with Compounds, 10 Concentrations):
In order to achieve a final concentration of 30 μM as highest concentration 3.5 μl of 10 mM compound stock solution were added directly to 163 μl media. Then step e) of the dilution procedure described below, was followed.
In order to achieve the second highest to the lowest concentrations, a serial dilution with dilution steps of 1:3 was followed according to the procedure (a-e) as described here below: • for the second highest concentration add 10 μl of 10 mM stock solution of compound to 20 μl dimethylsulfoxide (DMSO) • dilute 8×1:3 (always 10 μl to 20 μl DMSO) in this DMSO dilution row (results in 9 wells with concentrations from 3333.3 μM to 0.51 μM) • dilute each concentration 1:47.6 (3.5 μl compound dilution to 163 μl media) • add 10 μl of every concentration to 60 μl media in the cell plate resulting in final concentration of DMSO: 0.3% in every well and resulting in 10 final concentration of compounds ranging from 30 μM to 0.0015 μM. • Each compound is tested in triplicate. • Incubate 120 h (5 days) at 37° C., 5% CO2 Analysis:
Add 30 μl CellTiter-Glo™ Reagent (prepared from CellTiter-Glo™ Buffer and CellTiter-Glo™ Substrate (lyophilized) purchased from Promega) per well, • shake 15 minutes at room temperature • incubate further 45 minutes at room temperature without shaking Measurement:
Victor 2 scanning multiwell spectrophotometer (Wallac), Luminescence mode (0.5 sec/read, 477 nm)
Determine IC50 using a non-linear curve fit (XLfit software (ID Business Solution Ltd., Guilford, Surrey, UK))

Aurora A = target: T1, Aurora A (Homo sapiens, UniProt O14965); experiment: IC50 determination for inhibitors of Aurora A (96 MTP-ELISA); type: biochemical; details: His4-tagged full-length Aurora A 250 ng/ml, PKB-GSK2 200 nM, ATP 4 μM, 90 min at room temperature; read-out: IC50 Aurora A kinase inhibition
T1 construct: C-terminally Histidine4 (His4)-tagged Aurora A full-length protein
T1 sequence (O14965 1-403): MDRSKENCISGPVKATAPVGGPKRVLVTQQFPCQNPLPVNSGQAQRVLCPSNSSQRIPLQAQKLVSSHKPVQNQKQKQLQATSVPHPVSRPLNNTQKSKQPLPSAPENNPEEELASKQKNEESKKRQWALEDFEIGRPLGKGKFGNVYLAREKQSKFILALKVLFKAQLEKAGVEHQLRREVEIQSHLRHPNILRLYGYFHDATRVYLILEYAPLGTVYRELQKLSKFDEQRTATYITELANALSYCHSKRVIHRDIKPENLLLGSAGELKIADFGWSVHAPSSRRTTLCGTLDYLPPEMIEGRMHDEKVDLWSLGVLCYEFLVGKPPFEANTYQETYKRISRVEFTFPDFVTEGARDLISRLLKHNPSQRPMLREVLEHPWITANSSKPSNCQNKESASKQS
Source text: IC50 Determination for Inhibitors of Aurora A
Aurora A is a serine threonine kinase involved in spindle assembly and chromosome segregation.
The assay is a typically ELISA-type assay where biotinylated substrate (PKB-GSK2) is phosphorylated. Phosphorylation is detected by peroxidase (POD) labelled polyclonal antibody (PAK<M-Ig>S-IgG-POD) and phosphopeptide monoclonal antibody (Mab) (MAK<P-GSK>M-27E5-IgG). The assay is validated for IC50-determination.
Aurora A-His-4 C-terminally Histidine4 (His4)-tagged Aurora A full-length protein, stock solution 0.7 mg/ml, final conc.: 250 ng/ml
PKB-GSK2 biotinylated peptide derived from human GSK3-alpha sequence (Biotin-SGRARTSSFAEPGG-CONH2), stock solution 600 μM, final conc.: 200 nM
ATP Adenosine-5′-triphosphate 1 mM, diluted in kinase buffer, (Roche Diagnostics GmbH, Cat. No.: 127531-001,), final conc.: 4 μM
Kinase buffer 50 mM TRIS, 10 mM MgCl2, 1 mM DTT, 0.1% Tween 20, pH 7.8
This assay is performed in 96-well format for IC50 determination with 5 samples (each with 8 concentrations by twofold testing), 100 μl incubation volume and the following plate layout:
Step/Action 1. Sample preparation: add 24 μl per well samples (descending sequence) diluted in kinase buffer to assay plate (final conc. for DMSO 1%). 2. Add directly 16 μl Aurora-A-his-4 diluted in kinase buffer to assay plate. 3. Add directly 40 μl per well PKB-GSK2/ATP mixture to assay plate, (final conc.: Aurora A=250 ng/ml, GSK2=200 nM, ATP=4 μM). Negative control: without ATP. 4. Incubate assay plate for exactly 90 min at room temperature. 5. Stop reaction by adding 20 μl EDTA in all wells. 6. Wash assay plate 3× with 200 μl washing buffer per well. 7. Add 100 μl MAK<P-GSK>M27E5-IgG (1:10000) and PAK<M-Ig>S-IgG-POD (1:6000) dissolved in 3% BSA/PBS-T to assay plate per well. 8. Incubate assay plate for 60 min at room temperature. 9. Wash assay plate 3× with 200 μl washing buffer per well 10. Add 100 μl ABTS solution to assay plate per well, incubate for approx. 4 min at RT on MTP shaker. 11. Measure absorption at 405/492 nm. 12. Calculate % inhibition as: (1−(Esample−ENC)/(EPC−ENC))×100 13. Calculate IC50 using a non-linear curve fit (XLfit software (ID Business Solution Ltd., Guilford, Surrey, UK))

| Compound | IC50 (HCT 116 cells) [nM] | IC50 (Aurora A) [nM] |
| --- | --- | --- |
| CC(C)Cc1cc(-c2nc3cc4c(cc3[nH]2)N(C)C(=O)C4(C)C)[nH]n1 [Example 16, 2-(5-Isobutyl-2H-pyrazol-3-yl)-5,7,7-trimethyl-5,7-dihydro-3H-imidazo[4,5-f]indol-6-one] | 100 to 10000 |  |
| CCN1C(=O)C(C)(C)c2cc3nc(-c4cc[nH]n4)[nH]c3cc21 [Example 32, 5-Ethyl-7,7-dimethyl-2-(1H-pyrazol-3-yl)-5,7-dihydro-3H-imidazo[4,5-f]indol-6-one] | 100 to 10000 |  |
| CCN1C(=O)C(C)(C)c2cc3[nH]c(-c4cc(SC)[nH]n4)nc3cc21 [Example 45, 5-Ethyl-7,7-dimethyl-2-(5-methylsulfanyl-1H-pyrazol-3-yl)-5,7-dihydro-1H-imidazo[4,5-f]indol-6-one] | 100 to 10000 |  |
| CCc1[nH]nc(-c2nc3cc4c(cc3[nH]2)C(C)(C)C(=O)N4)c1C [Example 19, 2-(5-Ethyl-4-methyl-1H-pyrazol-3-yl)-7,7-dimethyl-5,7-dihydro-1H-imidazo[4,5-f]indol-6-one] |  | 10 to 500 |
| CCCc1cc(-c2nc3cc4c(cc3[nH]2)N(C)C(=O)C4(C)C)[nH]n1 [Example 14, 5,7,7-Trimethyl-2-(5-propyl-2H-pyrazol-3-yl)-5,7-dihydro-3H-imidazo[4,5-f]indol-6-one] | 1200 |  |
| CCCc1cc(-c2nc3cc4c(cc3[nH]2)N(CC)C(=O)C4(C)C)[nH]n1 [Example 33, 5-Ethyl-7,7-dimethyl-2-(5-propyl-2H-pyrazol-3-yl)-5,7-dihydro-3H-imidazo[4,5-f]indol-6-one; compound with acetic acid] | 100 to 10000 |  |
| CCN1C(=O)C(C)(C)c2cc3nc(-c4cc(C)[nH]n4)[nH]c3cc21 [Example 12, 5-Ethyl-7,7-dimethyl-2-(5-methyl-1H-pyrazol-3-yl)-5,7-dihydro-3H-imidazo[4,5-f]indol-6-one] | 100 to 10000 |  |
| CCN1C(=O)C(C)(C)c2cc3nc(-c4cc(OC)[nH]n4)[nH]c3cc21 [Example 44, 5-Ethyl-2-(5-methoxy-1H-pyrazol-3-yl)-7,7-dimethyl-5,7-dihydro-3H-imidazo[4,5-f]indol-6-one] | 100 to 10000 |  |
| CN1C(=O)C(C)(C)c2cc3nc(-c4cc(C(F)(F)F)n[nH]4)[nH]c3cc21 [Example 42, 5,7,7-Trimethyl-2-(5-trifluoromethyl-2H-pyrazol-3-yl)-5,7-dihydro-3H-imidazo[4,5-f]indol-6-one] | 980 |  |
| CN1C(=O)C(C)(C)c2cc3nc(-c4cc[nH]n4)[nH]c3cc21 [Example 30, 5,7,7-Trimethyl-2-(1H-pyrazol-3-yl)-5,7-dihydro-3H-imidazo[4,5-f]indol-6-one] | 100 to 10000 |  |
| CCN1C(=O)C(C)(C)c2cc3nc(-c4cc(CC(C)C)n[nH]4)[nH]c3cc21 [Example 15, 5-Ethyl-2-(5-isobutyl-2H-pyrazol-3-yl)-7,7-dimethyl-5,7-dihydro-3H-imidazo[4,5-f]indol-6-one] | 100 to 10000 |  |
| CCN1C(=O)C(C)(C)c2cc3nc(-c4cc(C(F)(F)F)[nH]n4)[nH]c3cc21 [Example 39, 5-Ethyl-7,7-dimethyl-2-(5-trifluoromethyl-1H-pyrazol-3-yl)-5,7-dihydro-3H-imidazo[4,5-f]indol-6-one] | 100 to 10000 |  |

Other lines, results leading:

| IC50 (HCT 116 cells) [nM] | IC50 (Aurora A) [nM] | Compound |
| --- | --- | --- |
| 10000 to 100000 |  | CC1(C)C(=O)Nc2cc3nc(-c4cc(C(F)(F)F)n[nH]4)[nH]c3cc21 [Example 38, 7,7-Dimethyl-2-(5-trifluoromethyl-2H-pyrazol-3-yl)-5,7-dihydro-1H-imidazo[4,5-f]indol-6-one] |
| 100 to 10000 |  | CC1(C)C(=O)Nc2cc3nc(-c4cc[nH]n4)[nH]c3cc21 [Example 20, 7,7-Dimethyl-2-(1H-pyrazol-3-yl)-5,7-dihydro-1H-imidazo[4,5-f]indol-6-one] |
|  | 10 to 500 | CC1(C)CC(=O)Nc2cc3nc(-c4cc(C5CC5)[nH]n4)[nH]c3cc21 [Example 25, 2-(5-Cyclopropyl-1H-pyrazol-3-yl)-8,8-dimethyl-1,5,7,8-tetrahydro-imidazo[4,5-g]quinolin-6-one] |
|  | 500 to 1500 | CCCc1cc(-c2nc3cc4c(cc3[nH]2)NC(=O)C42CCCC2)[nH]n1 [Example 29, 2-(5-Propyl-2H-pyrazol-3-yl)-spiro-5,7-dihydro[cyclopentane-1′,7-imidazo[4,5-f]indol]-6(3H)-one] |
|  | 10 to 500 | CC1(C)C(=O)Nc2cc3nc(-c4cc(C5CC5)[nH]n4)[nH]c3cc21 [Example 21, 2-(5-Cyclopropyl-1H-pyrazol-3-yl)-7,7-dimethyl-5,7-dihydro-1H-imidazo[4,5-f]indol-6-one] |
| 100 to 10000 |  | O=C1Nc2cc3nc(-c4cc(C5CC5)[nH]n4)[nH]c3cc2C12CCCC2 [Example 43, 2-(5-Cyclopropyl-2H-pyrazol-3-yl)-spiro-5,7-dihydro[cyclopentane-1′,7-imidazo[4,5-f]indol]-6(3H)-one] |
| 100 to 10000 |  | CC(C)c1cc(-c2nc3cc4c(cc3[nH]2)C(C)(C)C(=O)N4)[nH]n1 [Example 22, 2-(5-Isopropyl-2H-pyrazol-3-yl)-7,7-dimethyl-5,7-dihydro-1H-imidazo[4,5-f]indol-6-one] |
| 100 to 10000 |  | CC(C)Cc1cc(-c2nc3cc4c(cc3[nH]2)NC(=O)C42CCCC2)[nH]n1 [Example 8, 2-(5-Isobutyl-2H-pyrazol-3-yl)-spiro-5,7-dihydro[cyclopentane-1′,7-imidazo[4,5-f]indol]-6(3H)-one] |
